From ChEMBL document CHEMBL1144961, “Identification of a novel antiangiogenic agent; 4-(N-imidazol-2-ylmethyl)amino benzopyran analogues” (Bioorg Med Chem Lett, 2003)
The source made the active and inactive calls. No cut-off for these calls is given here.

Key:
Homo sapiens [1] = species on record: Homo sapiens; experiment: Inhibitory effect on (HUVEC) human umbilical vein endothelial cell tube formation at a uM; not assayed; format: functional
Homo sapiens [2] = species on record: Homo sapiens; experiment: Inhibitory effect on (HUVEC) human umbilical vein endothelial cell tube formation at a uM; ++ significant inhibition; format: functional
Rattus norvegicus [3] = species on record: Rattus norvegicus; experiment: In vitro cardioprotective effect was evaluated by measuring the contractile function (LVDRxHR) at a concentration of 10 uM; format: functional, Heart
Rattus norvegicus [4] = experiment: In vivo anti-infarction effect by measuring the ratio of myocardial infarct zone to area at risk (IZ/AAR) in ischemic myocardium damage rat model at 0.3 mg/Kg;not assayed; format: functional, organism-based
Mus musculus [5] = experiment: Antitumor efficacy against A549 human non -small cell lung carcinoma was tested in nude mice xenografts at 50 mg/kg on 45th day (i.p.); format: functional; details: route intraperitoneal
Mus musculus [6] = experiment: Antitumor efficacy against A549 human non -small cell lung carcinoma was tested in nude mice xenografts at 50 mg/kg on 61th day (i.p.); format: functional; details: route intraperitoneal
Rattus norvegicus [7] = species on record: Rattus norvegicus; experiment: In vitro cardioprotective effect was evaluated by measuring the contractile function EDP at a concentration of 10 uM; format: functional, Heart
Mus musculus [8] = experiment: Antitumor efficacy against A549 human non -small cell lung carcinoma was tested in nude mice xenografts at 50 mg/kg on 1st day (i.p.); format: functional; details: route intraperitoneal
Mus musculus [9] = experiment: Antitumor efficacy against A549 human non -small cell lung carcinoma was tested in nude mice xenografts at 50 mg/kg on 35th day (i.p.); format: functional; details: route intraperitoneal
Mus musculus [10] = experiment: Antitumor efficacy against A549 human non -small cell lung carcinoma was tested in nude mice xenografts at 50 mg/kg on 14th day (i.p.); format: functional; details: route intraperitoneal
Rattus norvegicus [11] = species on record: Rattus norvegicus; experiment: In vitro cardioprotective effect was evaluated by measuring the contractile function LDH at a concentration of 10 uM;not assayed; format: functional; details: Heart
Rattus norvegicus [12] = species on record: Rattus norvegicus; experiment: In vitro cardioprotective effect was evaluated by measuring the contractile function TTC at a concentration of 10 uM; format: functional, Heart
Mus musculus [13] = experiment: Antitumor efficacy against A549 human non -small cell lung carcinoma was tested in nude mice xenografts at 50 mg/kg on 25th day (i.p.); format: functional; details: route intraperitoneal
Rattus norvegicus [14] = species on record: Rattus norvegicus; experiment: Vasorelaxant potency was measured by inhibition of […]-contracted rat aorta; format: functional
Rattus norvegicus [15] = species on record: Rattus norvegicus; experiment: In vitro cardioprotective effect was evaluated by measuring the contractile function LDH at a concentration of 10 uM; format: functional, Heart
Rattus norvegicus [16] = experiment: In vivo anti-infarction effect by measuring the ratio of myocardial infarct zone to area at risk (IZ/AAR) in ischemic myocardium damage rat model at 0.3 mg/Kg; format: functional

`COC(OC)[C@]1(C)Oc2ccc([N+](=O)[O-])cc2[C@@H](N(Cc2ncc[nH]2)c2ccc(C(F)(F)F)cc2)[C@@H]1O` was tested, and the inhibition (Homo sapiens [1]) was “inactive”.

`COC(OC)[C@]1(C)Oc2ccc([N+](=O)[O-])cc2[C@@H](N(Cc2ncc[nH]2)c2ccc(OC(F)(F)F)cc2)[C@@H]1O` was tested, and the inhibition (Homo sapiens [1]) was “inactive”.

In the case of `COC(OC)[C@]1(C)Oc2ccc([N+](=O)[O-])cc2[C@@H](N(Cc2ncc[nH]2)c2ccc(Cl)cc2)[C@@H]1O`, the inhibition (Homo sapiens [2]) is reported as “Significant inhibition”.

`COC(OC)[C@]1(C)Oc2ccc(N)cc2[C@H](N(Cc2ncc[nH]2)c2ccc(Cl)cc2)[C@H]1O` was tested, and the inhibition (Homo sapiens [1]) was “inactive”.

For `COC(OC)[C@]1(C)Oc2ccc(N)cc2[C@@H](N(Cc2ncc[nH]2)c2ccc(Cl)cc2)[C@@H]1O`, the “LV DRxHR” value (Rattus norvegicus [3]) was 19.3%, the “IZ/AAR / AAR/LV” value (Rattus norvegicus [4]) was “inactive” and the inhibition in vivo at 50 mg/kg (Mus musculus [5]; A549, ip) was 49.5%. The Tumor volume (Mus musculus [5]) was 244.3 mm**3, the inhibition in vivo at 50 mg/kg (Mus musculus [6]; A549, ip) was 52.2% and the Tumor volume (Mus musculus [6]) was 494.8 mm**3. For the same compound, the EDP (Rattus norvegicus [7]) was 62.3 mmHg, the Body weight (Mus musculus [8]) was 22.3 g and the inhibition in vivo at 50 mg/kg (Mus musculus [9]; A549, ip) was 39.5%. For the same compound, the Body weight (Mus musculus [9]) was 27.1 g, the Tumor volume (Mus musculus [9]) was 186.8 mm**3 and the Body weight (Mus musculus [10]) was 25.42 g. For the same compound, the LDH (Rattus norvegicus [11]) was “inactive”, the TTC (Rattus norvegicus [12]) was 23.5 min and the inhibition in vivo at 50 mg/kg (Mus musculus [13]; A549, ip) was 39.7%. It also gave a Body weight (Mus musculus [13]) of 26.17 g, a Tumor volume (Mus musculus [13]) of 92.2 mm**3 and an IC50 (Rattus norvegicus [14]) of over 30 µM.

For `COc1ccc(N(Cc2ncc[nH]2)[C@H]2c3cc(N)ccc3O[C@](C)(C(OC)OC)[C@@H]2O)cc1`, the inhibition (Homo sapiens [1]) was “inactive”.

In the case of `COC(OC)[C@]1(C)Oc2ccc([N+](=O)[O-])cc2[C@@H](N(Cc2ncc[nH]2)c2ccc(Br)cc2)[C@@H]1O`, the inhibition (Homo sapiens [1]) is reported as “inactive”.

For `COC(OC)[C@@]1(C)Oc2ccc(N)cc2[C@@H](N(Cc2ncc[nH]2)c2ccc(Cl)cc2)[C@@H]1O`, the inhibition (Homo sapiens [2]) was “Significant inhibition”.

For `COC(OC)[C@@]1(C)Oc2ccc([N+](=O)[O-])cc2[C@@H](N(Cc2ncc[nH]2)c2ccc(Cl)cc2)[C@@H]1O`, the “LV DRxHR” value (Rattus norvegicus [3]) was 55.7%, the LDH (Rattus norvegicus [15]) was 10.7 U g-1 and the EDP (Rattus norvegicus [7]) was 14 mmHg. For the same compound, the IZ/AAR / AAR/LV (Rattus norvegicus [16]) was 41%, the TTC (Rattus norvegicus [12]) was 20.3 min and the inhibition (Homo sapiens [2]) was “Significant inhibition”. It also gave an IC50 (Rattus norvegicus [14]) of over 30 µM.

With `COC(OC)[C@@]1(C)Oc2ccc(N)cc2[C@H](N(Cc2ncc[nH]2)c2ccc(Cl)cc2)[C@H]1O` the inhibition (Homo sapiens [2]) was “Significant inhibition”.

`COC(OC)[C@@]1(C)Oc2ccc(N)cc2[C@H](N(Cc2ncc[nH]2)c2ccc(OC(F)(F)F)cc2)[C@H]1O` was tested, and the inhibition (Homo sapiens [1]) was “inactive”.
